Among the data in ChEMBL document CHEMBL1134559 (J Med Chem, 2001) are Ki values, retold here.

Bounds are passed on as bounds.

For experiment [1], the target named is T1, Kappa-type opioid receptor (Cavia porcellus, UniProt P41144). Briefly: Binding affinity to opioid receptor kappa 1 of guinea pig brain, using [3H]U-69593 as radioligand.
Experiment [2] concerns the target T2, Mu-type opioid receptor (Rattus norvegicus, UniProt P33535). Briefly: Binding affinity to mu-opioid receptor of rat brain using [3H]DAMGO as radioligand.
Experiment [3] addresses T3, Delta-type opioid receptor (Rattus norvegicus, UniProt P33533). Description: Binding affinity to delta-opioid receptor of rat brain using [3H]DADLE as radioligand.
The nature of experiment [4]: Inhibition of stimulation of [35S]GTP-gamma-S, binding produced by the selective agonist (SNC-80, delta-receptor), in guinea pig caudate membranes. On the technique in general: Binding of GTPγS marks nucleotide exchange on a G protein.
Experiment [5] addresses T1, Kappa-type opioid receptor. Briefly: Inhibition of stimulation of [35S]GTP-gamma-S, binding produced by the selective agonist (U69593, kappa-receptor), in guinea pig caudate membranes.
Experiment [6] addresses T3, Delta-type opioid receptor. Briefly: Binding affinity to delta-opioid receptor of rat brain using [3H]DADLE as radioligand.
Experiment [7] deals with T2, Mu-type opioid receptor. Briefly: Antagonist activity on agonist (DAMGO) stimulated [35S]GTP-gamma-S, binding in cloned mu opioid receptors. It is filed as functional.
The target in experiment [8] is Mu-type opioid receptor (Cavia porcellus, UniProt P97266). Description: Inhibition of stimulation of [35S]GTP-gamma-S, binding produced by the selective agonist (DAMGO, mu-receptor), in guinea pig caudate membranes. The class given is functional, cell membranes.
Mu-type opioid receptor (Cavia porcellus, UniProt P97266), sequence (P97266 whole entry): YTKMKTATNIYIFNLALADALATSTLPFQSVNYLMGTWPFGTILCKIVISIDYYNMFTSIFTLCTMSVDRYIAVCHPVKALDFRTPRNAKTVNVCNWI
The target in experiment [9] is T2, Mu-type opioid receptor. Description: Binding affinity to mu-opioid receptor of rat brain using [3H]DAMGO as radioligand.

T2 sequence (P33535 whole entry): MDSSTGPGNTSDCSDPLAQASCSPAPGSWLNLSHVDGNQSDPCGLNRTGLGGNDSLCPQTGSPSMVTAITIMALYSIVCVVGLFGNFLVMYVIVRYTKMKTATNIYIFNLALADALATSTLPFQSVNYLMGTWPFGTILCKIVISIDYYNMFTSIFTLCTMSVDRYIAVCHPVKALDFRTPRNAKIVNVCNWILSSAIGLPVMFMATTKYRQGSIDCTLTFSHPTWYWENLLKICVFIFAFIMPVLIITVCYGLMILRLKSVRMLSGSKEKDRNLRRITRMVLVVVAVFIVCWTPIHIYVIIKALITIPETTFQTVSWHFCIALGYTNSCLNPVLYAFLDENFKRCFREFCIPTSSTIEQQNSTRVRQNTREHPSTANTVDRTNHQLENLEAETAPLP
T1 sequence (P41144 whole entry): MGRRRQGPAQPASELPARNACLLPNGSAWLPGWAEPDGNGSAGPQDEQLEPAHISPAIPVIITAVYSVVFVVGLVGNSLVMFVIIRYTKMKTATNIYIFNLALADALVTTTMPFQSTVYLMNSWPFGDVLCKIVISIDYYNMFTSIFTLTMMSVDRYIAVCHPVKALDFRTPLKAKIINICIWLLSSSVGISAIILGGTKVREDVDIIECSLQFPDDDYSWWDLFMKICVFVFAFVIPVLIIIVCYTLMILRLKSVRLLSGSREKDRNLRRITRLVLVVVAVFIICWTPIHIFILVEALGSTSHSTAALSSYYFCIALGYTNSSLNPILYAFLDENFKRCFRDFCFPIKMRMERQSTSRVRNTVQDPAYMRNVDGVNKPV
T3 sequence (P33533 whole entry): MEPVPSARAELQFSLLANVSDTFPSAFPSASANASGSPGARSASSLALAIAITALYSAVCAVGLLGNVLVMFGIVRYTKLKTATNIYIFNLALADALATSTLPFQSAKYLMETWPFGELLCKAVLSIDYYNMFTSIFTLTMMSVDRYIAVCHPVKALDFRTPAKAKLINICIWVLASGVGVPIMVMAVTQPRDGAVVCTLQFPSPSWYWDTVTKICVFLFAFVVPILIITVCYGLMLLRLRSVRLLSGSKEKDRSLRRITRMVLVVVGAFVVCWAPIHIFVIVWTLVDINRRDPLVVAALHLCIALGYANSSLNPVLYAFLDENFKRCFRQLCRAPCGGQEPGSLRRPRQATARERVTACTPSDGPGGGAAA

A word on the Ki: it is the equilibrium dissociation constant of an inhibitor or competing ligand from its target. For `CC(C)[C@@H](CN1CC[C@@](C)(c2cccc(O)c2)[C@@H](C)C1)NC(=O)CCc1ccc(O)cc1`, the inhibition constant (Ki) in [1] was 3.84 nM; in experiment [2], 171 nM; in experiment [3] it was more than 3400 nM; in experiment [4], 450 nM.

For `CC(C)[C@@H](CN1CC[C@@](C)(c2cccc(O)c2)[C@@H](C)C1)NC(=O)C1Cc2ccc(O)cc2CN1` (stereo partly specified), the Ki in [5] was 0.02 nM; in experiment [6], 301 nM; in [7], 3.42 nM; in experiment [8] it was 2.16 nM; in experiment [9] it was 3.73 nM.

As for `Oc1ccc2c3c1O[C@H]1c4[nH]c5c(c4C[C@@]4(O)[C@@H](C2)N(CC2CC2)CC[C@]314)C[C@@]1(O)[C@H]2Cc3ccc(O)c4c3[C@@]1(CCN2CC1CC1)[C@H]5O4` [NORBINALTORPHIMINE], the Ki in experiment [1] stood at 109 nM; in [3] it was 86 nM.
